Assay results: US20020115212A1, “Enchanced PKR expression and cytokine production” (priority 2000, published 2002)

Legend:
[1] = test system: IFN-alpha production in Namalwa PKR++41.027 and WT Namalwa cells; assay: IFN-alpha production (ELISA) after PMA priming and Sendai virus or poly I:C induction in the presence of 2-aminopurine; format: cell-based, human; conditions: 5 mM 2-aminopurine, 20 nM PMA 24 hr, Namalwa PKR++41.027 and WT cells
Description: Parallel experiments were performed on duplicate cultures of the individual subclones of Namalwa PKR++41.027 cells and WT Namalwa cells. These cultures were also pretreated with 20 nM phorbol myristate acetate at a cell density 5.0×10^5 cells/ml, in 6 well plates for 24 hr followed by treatment with 500 HAU/ml Sendai virus or poly I:C (200 μg/ml) plus 10 μg/ml DEAE Dextran. In addition these cultures were also treated with the PKR inhibitor 5 mM 2-aminopurine (2AP; obtained from Aldrich Chemical Company). Culture supernatants from the Sendai virus-induced cells were removed at 24 hr, post-induction and culture supernatants from the Poly I:C-induced cells were removed at 72 hr and evaluated for IFN alpha production using ELISA (PBL Catalogue No. 41105 Human Interferon Alpha Multi-Species ELISA Kit).

[2] = test system: proinflammatory cytokines; assay: Induction of other proinflammatory cytokines by virus or poly I:C in the presence of 2-aminopurine; format: cell-based; conditions: results not shown
[3] = target: PKR (Homo sapiens, UniProt P19525); conditions: stated as known; cited from earlier work
[4] = test system: IFN-alpha production in Namalwa PKR++41.027 and WT Namalwa cells; assay: IFN-alpha production (ELISA) after PMA priming and poly I:C induction; format: cell-based, human; conditions: 20 nM PMA 24 hr, 200 μg/mL poly I:C plus 10 μg/mL DEAE Dextran, 72 hr
Description: Cells from individual subclones of Namalwa PKR++41.027 cells and WT Namalwa cells were pretreated with 20 nM phorbol myristate acetate at a cell density 5.0×10^5 cells/ml, in 6 well plates for 24 hrs followed by treatment with 500 HAU/ml Sendai virus or 200 μg/mL poly I:C plus 10 μg/mL DEAE Dextran for an additional 72 hr to induce IFN expression. Culture supernatants from the Sendai virus-treated cells were removed at 24 hr and 48 hr post-induction and supernatants from the Poly I:C treated cells were removed at 72 hr. IFN-alpha production was measured in these cell culture supernates using ELISA (Human Interferon Alpha Multi-Species ELISA Kit obtained from PBL).
FIG. 5 illustrates IFN-alpha production was enhanced following both Sendai virus and PolyI:C induction in Namalwa PKR++41.027 cells relative to IFN-alpha production by wild type Namalwa cells as shown in FIG. 5.

Sequence of PKR (P19525 whole entry): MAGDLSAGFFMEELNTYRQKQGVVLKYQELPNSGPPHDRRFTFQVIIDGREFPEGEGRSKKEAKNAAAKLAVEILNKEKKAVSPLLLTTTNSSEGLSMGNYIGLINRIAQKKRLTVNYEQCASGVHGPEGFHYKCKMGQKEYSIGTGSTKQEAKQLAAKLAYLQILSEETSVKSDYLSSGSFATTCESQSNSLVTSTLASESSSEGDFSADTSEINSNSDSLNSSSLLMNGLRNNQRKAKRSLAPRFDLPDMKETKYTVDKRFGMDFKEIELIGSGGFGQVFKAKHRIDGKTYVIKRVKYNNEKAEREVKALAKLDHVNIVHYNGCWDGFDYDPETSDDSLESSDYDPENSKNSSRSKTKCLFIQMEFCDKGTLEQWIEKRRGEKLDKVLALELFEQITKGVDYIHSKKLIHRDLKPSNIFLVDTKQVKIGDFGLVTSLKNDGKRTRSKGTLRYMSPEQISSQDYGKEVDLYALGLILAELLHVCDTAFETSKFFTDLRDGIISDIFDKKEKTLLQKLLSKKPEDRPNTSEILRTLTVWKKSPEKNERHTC

| Molecule | IFN-alpha production following Sendai virus induction ([1]; 500 HAU/ml Sendai virus, supernatant at 24 hr) | IFN-alpha production following poly I:C induction ([1]; poly I:C 200 μg/ml plus 10 μg/ml DEAE Dextran, supernatant at 72 hr) | induction of other proinflammatory cytokines by virus or poly I:C [2] | PKR kinase activity [3] | IFN-alpha induction in Namalwa PKR++41.027 cells [4] | IFN-alpha induction in parental wild type Namalwa cells [4] |
| --- | --- | --- | --- | --- | --- | --- |
| Nc1ncc2[nH]cnc2n1 [2-aminopurine] | decreased | decreased | inhibits | known inhibitor | – | – |
| poly I:C | – | – | – | – | capable of inducing IFN | absence of detectable IFN-alpha induction |
